In PubChem BioAssay (NCI):
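Five concentrations, 48 hours, 96-well plates. The concentration for full growth arrest is given as TGI.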

Key:
Experiment in all cases: growth of human tumour cells (NCI), 48 h
OVCAR-3 ovarian = system: OVCAR-3 ovarian
HCT-15 colon = system: HCT-15 colon
SN12C renal = system: SN12C renal
SF-295 CNS = system: SF-295 CNS
HCT-116 colon = system: HCT-116 colon
SNB-75 CNS = system: SNB-75 CNS
NCI-H23 lung = system: NCI-H23 lung
U251 CNS = system: U251 CNS
COLO 205 colon = system: COLO 205 colon
RPMI-8226 leukemia = system: RPMI-8226 leukemia
DU-145 prostate = system: DU-145 prostate
SF-539 CNS = system: SF-539 CNS
SNB-19 CNS = system: SNB-19 CNS
MDA-MB-435 = system: MDA-MB-435
MDA-MB-231 breast = system: MDA-MB-231 breast
CAKI-1 renal = system: CAKI-1 renal
HT29 colon = system: HT29 colon
RXF 393 renal = system: RXF 393 renal
KM12 colon = system: KM12 colon
HOP-62 NSCLC = system: HOP-62 NSCLC
NCI-H226 lung = system: NCI-H226 lung
A549 NSCLC = system: A549 NSCLC
BT-549 breast = system: BT-549 breast
IGROV1 ovarian = system: IGROV1 ovarian
MALME-3M melanoma = system: MALME-3M melanoma
OVCAR-4 ovarian = system: OVCAR-4 ovarian
A498 renal = system: A498 renal
MOLT-4 leukemia = system: MOLT-4 leukemia
SK-OV-3 ovarian = system: SK-OV-3 ovarian
HOP-92 NSCLC = system: HOP-92 NSCLC
LOX IMVI melanoma = system: LOX IMVI melanoma
EKVX NSCLC = system: EKVX NSCLC
HCC-2998 colon = system: HCC-2998 colon
SK-MEL-5 melanoma = system: SK-MEL-5 melanoma
SK-MEL-2 melanoma = system: SK-MEL-2 melanoma
SK-MEL-28 melanoma = system: SK-MEL-28 melanoma
NCI-H460 lung = system: NCI-H460 lung
M14 melanoma = system: M14 melanoma
HS 578T breast = system: HS 578T breast
CCRF-CEM leukemia = system: CCRF-CEM leukemia
SW-620 colon = system: SW-620 colon
PC-3 prostate = system: PC-3 prostate
NCI-H522 lung = system: NCI-H522 lung
NCI/ADR-RES ovarian = system: NCI/ADR-RES ovarian
UACC-257 melanoma = system: UACC-257 melanoma
ACHN renal = system: ACHN renal
SF-268 CNS = system: SF-268 CNS
OVCAR-5 ovarian = system: OVCAR-5 ovarian
TK-10 renal = system: TK-10 renal
MCF7 breast = system: MCF7 breast
UO-31 renal = system: UO-31 renal
UACC-62 melanoma = system: UACC-62 melanoma
OVCAR-8 ovarian = system: OVCAR-8 ovarian
786-0 renal = system: 786-0 renal
MDA-N = system: MDA-N
K-562 leukemia = system: K-562 leukemia
HL-60(TB) leukemia = system: HL-60(TB) leukemia
SR leukemia = system: SR leukemia

Compound: CC(=O)Nc1ccc2c3c(cc(O)c2c1)N(C(=O)CCCCC(=O)Nc1ccc2c4c(cc(O)c2c1)N(C(=O)OC(C)(C)C)CC4CCl)CC3CCl (stereo unspecified)
- TGI (OVCAR-3 ovarian): 5.41 µM
- TGI (HCT-15 colon): 48.2 µM
- TGI (SN12C renal): 21.8 µM
- TGI (SF-295 CNS): > 56.8 µM
- TGI (HCT-116 colon): > 33.2 µM
- TGI (SNB-75 CNS): 4.59 µM
- TGI (NCI-H23 lung): 7.09 µM
- TGI (U251 CNS): 10 µM
- TGI (COLO 205 colon): 4.17 µM
- TGI (RPMI-8226 leukemia): > 25.8 µM
- TGI (DU-145 prostate): 4.39 µM
- TGI (SF-539 CNS): 7.62 µM
- TGI (SNB-19 CNS): > 29.5 µM
- TGI (MDA-MB-435): 2.95 µM
- TGI (MDA-MB-231 breast): 26.8 µM
- TGI (CAKI-1 renal): 71.5 µM
- TGI (HT29 colon): > 37.9 µM
- TGI (RXF 393 renal): 3.26 µM
- TGI (KM12 colon): > 100 µM
- TGI (HOP-62 NSCLC): > 33.2 µM
- TGI (NCI-H226 lung): 5.55 µM
- TGI (A549 NSCLC): > 55.6 µM
- TGI (BT-549 breast): > 27.1 µM
- TGI (IGROV1 ovarian): > 32.8 µM
- TGI (MALME-3M melanoma): 3.52 µM
- TGI (OVCAR-4 ovarian): > 24.3 µM
- TGI (A498 renal): 4.57 µM
- TGI (MOLT-4 leukemia): > 34.4 µM
- TGI (SK-OV-3 ovarian): > 85.3 µM
- TGI (HOP-92 NSCLC): 32.8 µM
- TGI (LOX IMVI melanoma): > 34.6 µM
- TGI (EKVX NSCLC): 35.2 µM
- TGI (HCC-2998 colon): 3.79 µM
- TGI (SK-MEL-5 melanoma): 3.18 µM
- TGI (SK-MEL-2 melanoma): 3.49 µM
- TGI (SK-MEL-28 melanoma): 23.2 µM
- TGI (NCI-H460 lung): > 33.8 µM
- TGI (M14 melanoma): > 34.1 µM
- TGI (HS 578T breast): > 26.6 µM
- TGI (CCRF-CEM leukemia): 4.53 µM
- TGI (SW-620 colon): > 100 µM
- TGI (PC-3 prostate): > 44.8 µM
- TGI (NCI-H522 lung): 4.1 µM
- TGI (NCI/ADR-RES ovarian): > 79.7 µM
- TGI (UACC-257 melanoma): 5.16 µM
- TGI (ACHN renal): 16.1 µM
- TGI (SF-268 CNS): 7.21 µM
- TGI (OVCAR-5 ovarian): 10.6 µM
- TGI (TK-10 renal): > 65.5 µM
- TGI (MCF7 breast): 5.16 µM
- TGI (UO-31 renal): > 63.9 µM
- TGI (UACC-62 melanoma): 3.16 µM
- TGI (OVCAR-8 ovarian): > 38.7 µM
- TGI (786-0 renal): 9.36 µM
- TGI (MDA-N): 3.85 µM
- TGI (K-562 leukemia): > 100 µM
- TGI (HL-60(TB) leukemia): 12.4 µM

Compound: CC(C)CCn1c(=O)c2c(=O)[nH][nH]c2c2ccccc21
- TGI (OVCAR-3 ovarian): > 100 µM
- TGI (HCT-15 colon): > 100 µM
- TGI (SN12C renal): > 100 µM
- TGI (SF-295 CNS): > 100 µM
- TGI (HCT-116 colon): > 100 µM
- TGI (NCI-H23 lung): > 100 µM
- TGI (U251 CNS): > 100 µM
- TGI (COLO 205 colon): > 100 µM
- TGI (RPMI-8226 leukemia): > 100 µM
- TGI (DU-145 prostate): > 100 µM
- TGI (SF-539 CNS): > 100 µM
- TGI (SNB-19 CNS): > 100 µM
- TGI (MDA-MB-435): > 100 µM
- TGI (MDA-MB-231 breast): > 100 µM
- TGI (HT29 colon): > 100 µM
- TGI (KM12 colon): > 100 µM
- TGI (HOP-62 NSCLC): > 100 µM
- TGI (NCI-H226 lung): > 100 µM
- TGI (A549 NSCLC): > 100 µM
- TGI (BT-549 breast): > 100 µM
- TGI (IGROV1 ovarian): > 100 µM
- TGI (MALME-3M melanoma): > 100 µM
- TGI (OVCAR-4 ovarian): > 100 µM
- TGI (A498 renal): > 100 µM
- TGI (HOP-92 NSCLC): > 100 µM
- TGI (LOX IMVI melanoma): > 100 µM
- TGI (EKVX NSCLC): > 100 µM
- TGI (HCC-2998 colon): > 100 µM
- TGI (SK-MEL-5 melanoma): > 100 µM
- TGI (SK-MEL-28 melanoma): > 100 µM
- TGI (NCI-H460 lung): > 100 µM
- TGI (HS 578T breast): > 100 µM
- TGI (CCRF-CEM leukemia): > 100 µM
- TGI (SW-620 colon): > 100 µM
- TGI (PC-3 prostate): > 100 µM
- TGI (NCI-H522 lung): > 100 µM
- TGI (NCI/ADR-RES ovarian): > 100 µM
- TGI (UACC-257 melanoma): > 100 µM
- TGI (ACHN renal): > 100 µM
- TGI (OVCAR-5 ovarian): > 100 µM
- TGI (TK-10 renal): > 100 µM
- TGI (MCF7 breast): > 100 µM
- TGI (SR leukemia): > 100 µM
- TGI (UO-31 renal): > 100 µM
- TGI (OVCAR-8 ovarian): > 100 µM
- TGI (786-0 renal): > 100 µM
- TGI (MDA-N): > 100 µM
- TGI (K-562 leukemia): > 100 µM
- TGI (HL-60(TB) leukemia): > 100 µM
